The source of these data is patent publication US9017725B2, “Topical drug delivery systems for ophthalmic use” (Aurinia Pharmaceuticals Inc., priority 2009, dated 2015).

The data set can be described thus: Aqueous solubility and solubility in mixed nanomicellar formulation. The class given is physicochemical. The following applies: for solubility: mixed nanomicellar formulation, aqueous with cosolvent or surfactant or cyclodextrin. The protocol:
The ethanolic solution was evaporated under vacuum to get a thin film near-solid matter. Deionized water, 25 mL, was added to the thin film near-solid matter and sonicated for approximately 20 min to ensure complete formation of mixed micelles. The prepared 2× formulation was stored at room temperature.

SMILES strings stand for the structures. In brackets after ≈: the same amount, converted by molar mass.

With `C[C@@H]1C[C@H]2[C@@H]3CCC4=CC(=O)C=C[C@]4(C)[C@@]3(F)[C@@H](O)C[C@]2(C)[C@@]1(O)C(=O)CO` [dexamethasone], the solubility amounted to 1000 µg/mL (≈ 2.55 mM). Further, the improvement of solubility result (mixed nanomicellar formulation versus aqueous solubility) is “about 6.2 fold”.
Regarding `CO[C@H]1C[C@@H]2CC[C@@H](C)[C@@](O)(O2)C(=O)C(=O)N2CCCC[C@H]2C(=O)O[C@H]([C@H](C)C[C@@H]2CC[C@@H](O)[C@H](OC)C2)CC(=O)[C@H](C)/C=C(\C)[C@@H](O)[C@@H](OC)C(=O)[C@H](C)C[C@H](C)/C=C/C=C/C=C/1C` [rapamycin], the solubility turned out to be 4000 µg/mL (≈ 4.38 mM). Moreover, the improvement of solubility entry (mixed nanomicellar formulation (4 mg/mL) versus aqueous solubility) is “up to 2000 fold”.
